Results taken from US6737383B1, “Herbicidal oxadiazolidines” (priority 1999, dated 2004).

Legend:
surinam grass = test: Test B pre/postemergence surinam grass; format: in vivo, Brachiaria decumbens
Method in brief: (§1)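 Response is a visual 0-to-10 score relative to untreated plants, where 0 means no effect and 10 means complete control, taken twelve to sixteen days after application. Treatments went onto soil at planting and onto foliage of 1- to 4-leaf plants, using a surfactant-containing non-phytotoxic solvent.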

rape = test: Test B pre/postemergence rape; format: in vivo, Brassica napus
Method in brief: as §1

velvetleaf = test: Test B pre/postemergence velvetleaf; format: in vivo, Abutilon theophrasti
Method in brief: as §1

purple nutsedge = test: Test B pre/postemergence purple nutsedge; format: in vivo, Cyperus rotundus
Method in brief: as §1

morningglory = test: Test B pre/postemergence morningglory; format: in vivo, Ipomoea hederacea
Method in brief: as §1

sugar beet = test: Test B pre/postemergence sugar beet; format: in vivo, Beta vulgaris
Method in brief: as §1

giant foxtail = test: Test B pre/postemergence giant foxtail; format: in vivo, Setaria faberii
Method in brief: as §1

pigweed = test: Test B pre/postemergence pigweed; format: in vivo, Amaranthus retroflexus
Method in brief: as §1

blackgrass = test: Test B pre/postemergence blackgrass; format: in vivo, Alopecurus myosuroides
Method in brief: as §1

smallflower flatsedge = test: Test B flood test smallflower flatsedge; format: in vivo, Cyperus difformis
Method in brief: (§2)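 Flood test on plants grown to the 2-leaf stage; treated plants kept in greenhouse twelve to sixteen days, then visually rated against controls on a 0 (no effect) to 10 (complete control) scale.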

wheat = test: Test B pre/postemergence wheat; format: in vivo, Triticum aestivum
Method in brief: as §1

duck salad = test: Test B flood test duck salad; format: in vivo, Heteranthera limosa; settings: for Plant response rating, Ducksalad: scale 0 to 10, 0 is no effect, 10 is complete control; for Ducksalad plant response rating: scale of 0 to 10 where 0 is no effect and 10 is complete control
Method in brief: as §2

rice = test: Test B flood test rice; format: in vivo, Oryza sativa
Method in brief: as §2

corn = test: Test B pre/postemergence corn; format: in vivo, Zea mays
Method in brief: as §1

crabgrass = test: Test B pre/postemergence crabgrass; format: in vivo, Digitaria sanguinalis
Method in brief: as §1

cocklebur = test: Test B pre/postemergence cocklebur; format: in vivo, Xanthium strumarium
Method in brief: as §1

[1] = Postemergence, Rate 125 g/ha, scale 0 to 10, 0 is no effect, 10 is complete control
[2] = Postemergence, Rate 250 g/ha, scale 0 to 10, 0 is no effect, 10 is complete control
[3] = Postemergence, Rate 500 g/ha, scale of 0 to 10 where 0 is no effect and 10 is complete control
[4] = Preemergence, Rate 62 g/ha, scale 0 to 10 (0 no effect, 10 complete control)
[5] = Preemergence, Rate 125 g/ha, scale of 0 to 10 where 0 is no effect and 10 is complete control
[6] = Preemergence, Rate 250 g/ha, scale of 0 to 10 where 0 is no effect and 10 is complete control
[7] = Rate 62 g/ha, Postemergence, scale of 0 to 10 where 0 is no effect and 10 is complete control
[8] = Preemergence, Rate 250 g/ha, scale 0 to 10, 0 is no effect, 10 is complete control
[9] = Preemergence, Rate 500 g/ha, scale 0 to 10, 0 is no effect, 10 is complete control
[10] = Postemergence section (flood test species), Rate 500 g/ha, scale of 0 to 10 where 0 is no effect and 10 is complete control
[11] = flood test species, listed under Postemergence, Rate 250 g/ha, scale 0 to 10, 0 is no effect, 10 is complete control

## CC(C)N(C(=O)n1oc(=O)n(CC2(C)COC2)c1=O)c1ccccc1 [Compound 420]
Surinam grass; [1]
  Plant response rating, B. signalgrass: 2
Surinam grass; [2]
  Plant response rating, B. signalgrass: 5
Surinam grass; [3]
  B. signalgrass plant response rating: 7
Surinam grass; [4]
  Plant response rating, B. signalgrass: 2
Surinam grass; [5]
  Plant response rating, B. signalgrass: 2
Surinam grass; [6]
  B. signalgrass plant response rating: 6
Surinam grass; Preemergence, Rate 500 g/ha, scale of 0 to 10 where 0 is no effect and 10 is complete control
  B. signalgrass plant response rating: 8
Surinam grass; [7]
  B. signalgrass plant response rating: 0
rape; [2]
  Plant response rating, Rape: 0
rape; [3]
  Rape plant response rating: 0
rape; [4]
  Plant response rating, Rape: 0
rape; [5]
  Plant response rating, Rape: 0
rape; [8]
  Rape plant response rating: 0
rape; [9]
  Rape plant response rating: 8
velvetleaf; [2]
  Plant response rating, Velvetleaf: 0
velvetleaf; [3]
  Velvetleaf plant response rating: 0
velvetleaf; [4]
  Plant response rating, Velvetleaf: 0
velvetleaf; [5]
  Plant response rating, Velvetleaf: 2
velvetleaf; [8]
  Velvetleaf plant response rating: 6
velvetleaf; [9]
  Velvetleaf plant response rating: 7
Purple nutsedge; [2]
  Plant response rating, Nutsedge: 0
Purple nutsedge; [3]
  Nutsedge plant response rating: 0
Purple nutsedge; [4]
  Plant response rating, Nutsedge: 0
Purple nutsedge; [5]
  Plant response rating, Nutsedge: 0
Purple nutsedge; [8]
  Nutsedge plant response rating: 0
Purple nutsedge; [9]
  Nutsedge plant response rating: 10
morningglory; [2]
  Plant response rating, Morningglory: 4
morningglory; [3]
  Morningglory plant response rating: 10
morningglory; [4]
  Plant response rating, Morningglory: 0
morningglory; [5]
  Plant response rating, Morningglory: 0
morningglory; [8]
  Morningglory plant response rating: 2
morningglory; [9]
  Morningglory plant response rating: 8
Sugar beet; [2]
  Plant response rating, Sugarbeets: 0
Sugar beet; [3]
  Sugarbeets plant response rating: 0
Sugar beet; [4]
  Plant response rating, Sugarbeets: 0
Sugar beet; [5]
  Plant response rating, Sugarbeets: 0
Sugar beet; [8]
  Sugarbeets plant response rating: 2
Sugar beet; [9]
  Sugarbeets plant response rating: 3
Giant foxtail; [1]
  Plant response rating, Giant foxtail: 8
Giant foxtail; [2]
  Plant response rating, Giant foxtail: 8
Giant foxtail; [3]
  Giant foxtail plant response rating: 9
Giant foxtail; [4]
  Plant response rating, Giant foxtail: 5
Giant foxtail; [5]
  Plant response rating, Giant foxtail: 9
Giant foxtail; [8]
  Giant foxtail plant response rating: 10
Giant foxtail; [9]
  Giant foxtail plant response rating: 10
Giant foxtail; [7]
  Giant foxtail plant response rating: 7
pigweed; [2]
  Plant response rating, Redroot pigweed: 0
pigweed; [3]
  Redroot pigweed plant response rating: 0
pigweed; [4]
  Plant response rating, Redroot pigweed: 0
pigweed; [5]
  Plant response rating, Redroot pigweed: 2
pigweed; [8]
  Redroot pigweed plant response rating: 2
pigweed; [9]
  Redroot pigweed plant response rating: 5
blackgrass; [1]
  Plant response rating, Blackgrass: 2
blackgrass; [2]
  Plant response rating, Blackgrass: 6
blackgrass; [3]
  Blackgrass plant response rating: 6
blackgrass; [4]
  Plant response rating, Blackgrass: 4
blackgrass; [5]
  Plant response rating, Blackgrass: 8
blackgrass; [6]
  Blackgrass plant response rating: 8
blackgrass; [9]
  Blackgrass plant response rating: 10
blackgrass; [7]
  Blackgrass plant response rating: 0
Smallflower flatsedge; [10]
  S. Flatsedge plant response rating: 0
Smallflower flatsedge; [11]
  Plant response rating, S. Flatsedge: 0
wheat; [3]
  Wheat plant response rating: 5
wheat; [4]
  Plant response rating, Wheat: 0
wheat; [5]
  Plant response rating, Wheat: 0
wheat; [8]
  Wheat plant response rating: 2
wheat; [9]
  Wheat plant response rating: 7
Duck salad; Postemergence (flood test), Rate 125 g/ha
  Plant response rating, Ducksalad: 0
Duck salad; Postemergence section (flood test species), Rate 500 g/ha
  Ducksalad plant response rating: 0
Duck salad; Rate 62 g/ha, Postemergence (flood test species)
  Ducksalad plant response rating: 0
Duck salad; flood test species, listed under Postemergence, Rate 250 g/ha
  Plant response rating, Ducksalad: 0
rice; [10]
  Rice plant response rating: 0
rice; [11]
  Plant response rating, Rice: 0
corn; [1]
  Plant response rating, Corn: 0
corn; [2]
  Plant response rating, Corn: 0
corn; [3]
  Corn plant response rating: 0
corn; [4]
  Plant response rating, Corn: 0
corn; [5]
  Plant response rating, Corn: 0
corn; [8]
  Corn plant response rating: 0
corn; [9]
  Corn plant response rating: 2
corn; [7]
  Corn plant response rating: 0
crabgrass; [1]
  Plant response rating, Crabgrass: 2
crabgrass; [2]
  Plant response rating, Crabgrass: 8
crabgrass; [3]
  Crabgrass plant response rating: 8
crabgrass; [4]
  Plant response rating, Crabgrass: 7
crabgrass; [5]
  Plant response rating, Crabgrass: 9
crabgrass; [8]
  Crabgrass plant response rating: 9
crabgrass; [9]
  Crabgrass plant response rating: 10
crabgrass; [7]
  Crabgrass plant response rating: 2
cocklebur; [1]
  Plant response rating, Cocklebur: 0
cocklebur; [2]
  Plant response rating, Cocklebur: 0
cocklebur; [3]
  Cocklebur plant response rating: 0
cocklebur; [4]
  Plant response rating, Cocklebur: 0
cocklebur; [5]
  Plant response rating, Cocklebur: 0
cocklebur; [8]
  Cocklebur plant response rating: 0
cocklebur; [9]
  Cocklebur plant response rating: 0
cocklebur; [7]
  Cocklebur plant response rating: 0
